Measurements: US8318807B2 (Laurus Labs Private Limited, priority 2010, dated 2012)

What was measured:
[1] = Relative humidity stability over saturated salt solutions at ambient temperature, analysed by XRPD; assay type: physicochemical; conditions: for Dissociation by XRPD: 75, 94, or 98% RH after four weeks
Experimental: Relative humidity (RH) conditions were created at ambient temperatures using saturated salt solutions: NaCl ˜75%, KNO3 ˜94%, and K2SO4 ˜98%. Vials of each sample containing approximately 10 mg, were subjected to physical stability at ˜75% RH, ˜94% RH, and ˜98% RH for one day, three days, one week, and four weeks within a closed chamber. […] Upon completion of the duration allowed, the samples were immediately analyzed by XRPD.

cancer cell lines = cancer cell lines in vitro; cited from earlier work
[2] = Physical stability upon slurrying in water; assay type: physicochemical; conditions: for Behaviour upon slurrying in water: three days
From the text: […]. […] […]. […]

[3] = Experimental: Solubility and concentration measurements were performed using ultraviolet (UV) spectroscopy on a Spectramax Microplate Reader.
Appropriate dilutions with water were made as necessary to maintain absorbance readings within the standard curve. All experiments were repeated three times to evaluate the standard deviation, while particle size was not controlled for any of the experiments.

[4] = Attempted intrinsic dissolution in 900 mL water at ambient conditions; assay type: physicochemical; conditions: after 30 minutes
Experimental: Intrinsic dissolution in 900 mL water at ambient conditions was also attempted. […] Therefore, a concentration vs. time and intrinsic dissolution rate value were unobtainable at these conditions.

[5] = Powder dissolution of cocrystal 4 (attempted for cocrystal 3): slurry in water at ambient, UV at 315 nm; assay type: physicochemical
[6] = Physical stability at elevated temperature and/or relative humidity, analysed by XRPD; assay type: physicochemical
Experimental: Physical stability was evaluated at approximately 40° C., 60° C., 25° C./75% RH, 25° C./98% RH, and 40° C./75% RH and XRPD was used to detect dissociation or form conversion. Vials of each cocrystal were subjected to each condition for durations of two weeks, one month, and two months. Upon completion of the duration allowed, the samples were immediately analyzed by XRPD.

Compound | Dissociation by XRPD [1] | Results (XRPD) ([1]; 75% RH, 1 week) | Results (XRPD) ([1]; 75% RH, 4 weeks) | Results (XRPD) ([1]; 75% RH, 1 day) | Results (XRPD) ([1]; 75% RH, 3 days) | Results (XRPD) ([1]; 94% RH, 1 week (7 days)) | Results (XRPD) ([1]; 94% RH, 4 weeks) | Results (XRPD) ([1]; 94% RH, 1 day) | Results (XRPD) ([1]; 94% RH, 3 days) | Results (XRPD) ([1]; 98% RH, 1 week) | Results (XRPD) ([1]; 98% RH, 4 weeks) | Results (XRPD) ([1]; 98% RH, 1 day) | Results (XRPD) ([1]; 98% RH, 3 days) | Behaviour upon slurrying in water [2] | further results
COc1cc(/C=C/c2ccc(O)cc2)cc(OC)c1.Cn1c(=O)c2c(ncn2C)n(C)c1=O [cocrystal 1, pterostilbene:caffeine] | no dissociation |  |  |  |  |  |  |  |  |  |  |  |  |  | 
Cn1c(=O)c2c(ncn2C)n(C)c1=O [caffeine] |  | caffeine anhydrous | caffeine anhydrous | caffeine anhydrous | caffeine anhydrous | caffeine hydrate | caffeine hydrate | caffeine anhydrous | caffeine anhydrous/caffeine hydrate | caffeine hydrate | caffeine hydrate | caffeine hydrate | caffeine hydrate |  | Conversion to hydrate ([1]; 75% RH, up to four weeks): does not display signs of conversion; Time of partial conversion to hydrate/dihydrate ([1]; 94% RH): between one and three days; Time of (full) conversion to hydrate/dihydrate ([1]; 98% RH): less than one day
COc1cc(/C=C/c2ccc(O)cc2)cc(OC)c1 [pterostilbene, trans-3,5-dimethoxy-4′-hydroxystilbene] |  |  | pterostilbene (Form I) |  |  |  | pterostilbene (Form I) |  |  |  | pterostilbene (Form I) |  |  |  | Cytotoxic activity (cancer cell lines): cytotoxic activity
COc1cc(/C=C/c2ccc(O)cc2)cc(OC)c1.Cn1c(=O)c2c(ncn2C)n(C)c1=O [cocrystal 1 (Form I), pterostilbene:caffeine] |  | cocrystal 1 (Form I), no caffeine hydrate | cocrystal 1 (Form I), no caffeine hydrate | cocrystal 1 (Form I), no caffeine hydrate | cocrystal 1 (Form I), no caffeine hydrate | cocrystal 1 (Form I), no caffeine hydrate | cocrystal 1 (Form I), no caffeine hydrate | cocrystal 1 (Form I), no caffeine hydrate | cocrystal 1 (Form I), no caffeine hydrate |  |  |  |  | precipitation of pterostilbene | Results (XRPD) ([1]; 75% RH, 1 week, then additional stress at 98% RH, 1 week): cocrystal 1 (Form I), no caffeine hydrate; Results (XRPD) ([1]; 75% RH, 1 day, then additional stress at 98% RH, 1 day): cocrystal 1 (Form I), no caffeine hydrate; Results (XRPD) ([1]; 94% RH, 7 days, then additional stress at 98% RH, 4 weeks): cocrystal 1 (Form I), no caffeine hydrate; Results (XRPD) ([2]; Table 19, slurry, 2 days): cocrystal 1 (Form I), no caffeine hydrate
pterostilbene:carbamazepine [cocrystal 2] |  | cocrystal 2, no carbamazepine dihydrate | cocrystal 2, no carbamazepine dihydrate | cocrystal 2, no carbamazepine dihydrate | cocrystal 2, no carbamazepine dihydrate | cocrystal 2, no carbamazepine dihydrate | cocrystal 2, no carbamazepine dihydrate | cocrystal 2, no carbamazepine dihydrate | cocrystal 2, no carbamazepine dihydrate | cocrystal 2, no carbamazepine dihydrate | cocrystal 2, no carbamazepine dihydrate | cocrystal 2, no carbamazepine dihydrate | cocrystal 2, no carbamazepine dihydrate | stable | Solubility (±standard deviation) [3]: 8.5 ± 0.7 µg/mL
pterostilbene:glutaric acid [cocrystal 3] | no dissociation |  |  |  |  |  |  |  |  |  |  |  |  |  | XRPD result in intrinsic dissolution [4]: crystalline pterostilbene; Solubility relative to pterostilbene ([5]; concluded from crystalline pterostilbene being the only product after slurrying in water): greater than the solubility of pterostilbene; XRPD result after slurrying in water ([5]; water at ambient, after 5 minutes): crystalline pterostilbene; Results (by XRPD) ([6]; 25° C./75% RH, 2 weeks): cocrystal 3; Results (by XRPD) ([6]; 25° C./75% RH, 4 weeks): cocrystal 3; Results (by XRPD) ([6]; 25° C./75% RH, 8 weeks): cocrystal 3; Results (by XRPD) ([6]; 25° C./98% RH, 2 weeks): cocrystal 3; Results (by XRPD) ([6]; 25° C./98% RH, 4 weeks): cocrystal 3; Results (by XRPD) ([6]; 25° C./98% RH, 8 weeks): cocrystal 3; Results (by XRPD) ([6]; 40° C., 2 weeks): cocrystal 3; Results (by XRPD) ([6]; 40° C., 4 weeks): cocrystal 3; Results (by XRPD) ([6]; 40° C., 8 weeks): cocrystal 3; Results (by XRPD) ([6]; 40° C./75% RH, 2 weeks): cocrystal 3; Results (by XRPD) ([6]; 40° C./75% RH, 4 weeks): cocrystal 3; Results (by XRPD) ([6]; 40° C./75% RH, 8 weeks): cocrystal 3; Results (by XRPD) ([6]; 60° C., 2 weeks): cocrystal 3; Results (by XRPD) ([6]; 60° C., 4 weeks): cocrystal 3; Results (by XRPD) ([6]; 60° C., 8 weeks): cocrystal 3
